Values quoted from earlier work, collected in patent publication US20110189283A1, “APPETISING MEDICAMENTS FOR ORAL ADMINISTRATION IN SOLID FORM FOR PREVENTION AND/OR TREATMENT OF CARDIAC INSUFFICIENCY IN ANIMALS” (VIRBAC, priority 2008, published 2011).

Columns and labels:
[1] = administered during or shortly after feeding
[2] = tested on: phosphodiesterase type III; conditions: after oral administration

| Compound | effect of feeding on bioavailability [1] | duration of positive inotropic effects [2] [h] | dose administered found in the feces (dogs) [%] | dose administered found in the urine (dogs) [%] | time to state of equilibrium (multiple oral administrations) [days] | accumulation (multiple oral administrations of 2 mg per kg for 10 consecutive days) | effect of simultaneous taking of foods on bioavailability (oral) | absorption versus amount administered (oral administration of 2 to 4 mg/kg) | metabolism by the liver (to 7α-thiomethylspironolactone and canrenone, dogs) |
| --- | --- | --- | --- | --- | --- | --- | --- | --- | --- |
| COc1ccc(-c2nc3ccc(C4=NNC(=O)CC4C)cc3[nH]2)cc1 (stereo not drawn) [pimobendan, 4,5-dihydro-6-[2-(4-methoxyphenyl)-1H-benzimidazol-5-yl]-5-methyl-3(2H)-pyridazinone] | considerably reduced | 8 |  |  |  |  |  |  |  |
| CC(=O)S[C@@H]1CC2=CC(=O)CC[C@]2(C)[C@H]2CC[C@@]3(C)[C@@H](CC[C@@]34CCC(=O)O4)[C@H]12 [spironolactone] |  |  | 70 | 20 | 2 | no accumulation is observed | considerably increases | increases linearly | rapidly and completely metabolized |
